Laboratory results taken from PubChem BioAssay AID330 (DTP/NCI, 2004).
“And” between values parts separate entries of the source, which are not always exact repeats. Equal entries are not always repeated. Toxic doses and inconclusive results are not listed. How the source made its calls: active means survival T/C of 150% or more; inactive means T/C below 125% in these data.

Tested on: P388 leukemia ip, CD2F1 mice, survival T/C
Assay: NCI In Vivo Anticancer Drug Screen. Data for tumor model P388 Leukemia (intraperitoneal) in CD2F1 (CDF1) mice
Conditions: endpoint: median survival time, higher = longer survival
In short: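 Mice carrying the transplanted tumor received test compound or vehicle. Survival was recorded in each group, and the value is the treated-group measurement divided by that of the vehicle-treated control group.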

[1] = dose: 100.0 mg/kg/injection, schedule: Q04DX002 (ip), vehicle: saline with Tween-80
[2] = dose: 50.0 mg/kg/injection, schedule: Q01DX009 (ip), vehicle: saline with Tween-80
[3] = dose: 100.0 mg/kg/injection, schedule: Q01DX009 (ip), vehicle: saline with Tween-80
[4] = dose: 200.0 mg/kg/injection, schedule: Q01DX009 (ip), vehicle: saline with Tween-80
[5] = dose: 12.5 mg/kg/injection, schedule: Q01DX005 (ip), vehicle: saline
[6] = dose: 25.0 mg/kg/injection, schedule: Q01DX005 (ip), vehicle: saline
[7] = dose: 50.0 mg/kg/injection, schedule: Q01DX005 (ip), vehicle: saline
[8] = dose: 100.0 mg/kg/injection, schedule: Q04DX003 (ip), vehicle: saline with Tween-80
[9] = dose: 200.0 mg/kg/injection, schedule: Q04DX003 (ip), vehicle: saline with Tween-80
[10] = dose: 25.0 mg/kg/injection, schedule: Q04DX002 (ip), vehicle: saline with Tween-80
[11] = dose: 50.0 mg/kg/injection, schedule: Q04DX002 (ip), vehicle: saline with Tween-80
[12] = dose: 60.0 mg/kg/injection, schedule: Q01DX005 (ip), vehicle: saline
[13] = dose: 120.0 mg/kg/injection, schedule: Q01DX005 (ip), vehicle: saline
[14] = dose: 240.0 mg/kg/injection, schedule: Q01DX005 (ip), vehicle: saline

Measured: T/C

C/C=C(\C)C(=O)OCc1c2c(c(OC)c3occ(C)c13)C=CCC2C (stereo not drawn)
inactive: dose: 5.5 mg/kg/injection, schedule: Q01DX009 (ip), vehicle: Klucel (hydroxypropylcellulose) (HPC) 94 % of control | dose: 11.0 mg/kg/injection, schedule: Q01DX009 (ip), vehicle: Klucel (hydroxypropylcellulose) (HPC) 100 % of control | dose: 22.0 mg/kg/injection, schedule: Q01DX009 (ip), vehicle: Klucel (hydroxypropylcellulose) (HPC) 100 % of control | dose: 44.0 mg/kg/injection, schedule: Q01DX009 (ip), vehicle: Klucel (hydroxypropylcellulose) (HPC) 104 % of control

CC(=O)ON1C(=O)C2C3C=CC(O3)C2C1=O (stereo not drawn)
inactive: dose: 3.13 mg/kg/injection, schedule: Q01DX009 (ip), vehicle: water 103 % of control | dose: 6.25 mg/kg/injection, schedule: Q01DX009 (ip), vehicle: water 112 % of control | dose: 12.5 mg/kg/injection, schedule: Q01DX009 (ip), vehicle: water 100 % of control | dose: 25.0 mg/kg/injection, schedule: Q01DX009 (ip), vehicle: water 102 % of control | dose: 50.0 mg/kg/injection, schedule: Q01DX009 (ip), vehicle: water 93 % of control

CCOC(=O)C12C3CC4C1C1(Cl)C(Cl)(Cl)C2(Cl)C2(Cl)C3C4C12Cl (stereo not drawn)
inactive: [1] 94 % of control | dose: 200.0 mg/kg/injection, schedule: Q04DX002 (ip), vehicle: saline with Tween-80 93 % of control | dose: 400.0 mg/kg/injection, schedule: Q04DX002 (ip), vehicle: saline with Tween-80 109 % of control

CC(C)(C)C(=O)NNc1cccc(Cl)n1
inactive: dose: 50.0 mg/kg/injection, schedule: Q01DX001 (ip), vehicle: Klucel (hydroxypropylcellulose) (HPC) 109 % of control | dose: 100.0 mg/kg/injection, schedule: Q01DX001 (ip), vehicle: Klucel (hydroxypropylcellulose) (HPC) 98 % of control | dose: 200.0 mg/kg/injection, schedule: Q01DX001 (ip), vehicle: Klucel (hydroxypropylcellulose) (HPC) 100 % of control

O=C1/C(=C/c2cccc(O)c2O)SC(=S)N1CCCN1CCOCC1
inactive: [2] 98 % of control | [3] 107 % of control | [4] 92 % of control

CC(C)CC(C)NC(C)CC(C)C (stereo not drawn)
inactive: [5] 90 % of control | [6] 97 % of control | [7] 102 % of control and 92 % of control

O=C(/C=C/c1ccc(Cl)cc1)/C=C/c1ccc(Cl)cc1
inactive: [2] 91 % of control | [3] 86 % of control | [4] 93 % of control

CN(C)c1ccc(-c2nc3c4ccccc4c4ccccc4c3[nH]2)cc1
inactive: [2] 105 % of control | [3] 90 % of control | [4] 87 % of control

OCCN1CCOCC1
inactive: [8] 95 % of control | [9] 95 % of control | dose: 400.0 mg/kg/injection, schedule: Q04DX003 (ip), vehicle: saline with Tween-80 95 % of control

CC(=O)OC(=O)c1c(OC(C)=O)cc(C)c2c1CC(C1(C)CO1)CC2 (stereo not drawn)
inactive: dose: 1.88 mg/kg/injection, schedule: Q01DX005 (ip), vehicle: Klucel (hydroxypropylcellulose) (HPC) 100 % of control | dose: 3.75 mg/kg/injection, schedule: Q01DX005 (ip), vehicle: Klucel (hydroxypropylcellulose) (HPC) 99 % of control | dose: 7.5 mg/kg/injection, schedule: Q01DX005 (ip), vehicle: Klucel (hydroxypropylcellulose) (HPC) 100 % of control | dose: 15.0 mg/kg/injection, schedule: Q01DX005 (ip), vehicle: Klucel (hydroxypropylcellulose) (HPC) 100 % of control | dose: 30.0 mg/kg/injection, schedule: Q01DX005 (ip), vehicle: Klucel (hydroxypropylcellulose) (HPC) 101 % of control

CCCCC(CC)(CCC)CCN (stereo not drawn)
inactive: dose: 6.25 mg/kg/injection, schedule: Q01DX009 (ip), vehicle: suspension in saline 104 % of control | dose: 12.5 mg/kg/injection, schedule: Q01DX009 (ip), vehicle: suspension in saline 107 % of control | dose: 25.0 mg/kg/injection, schedule: Q01DX009 (ip), vehicle: suspension in saline 102 % of control

C/C=C(\C)C(=O)OCC1(C)C(OC(=O)/C(C)=C/C)CCC2(C)C3C(=O)C=C(C)C2C31 (stereo not drawn)
inactive: [10] 110 % of control | [11] 94 % of control | [1] 97 % of control

CCCCCCCC#CC(=O)O
inactive: [2] 88 % of control | [3] 89 % of control | [4] 86 % of control

CCCN1C(=O)C2C3CCC(O3)C2C1=O (stereo not drawn)
inactive: [12] 100 % of control | [13] 109 % of control | [14] 98 % of control

Cc1cc(C(=O)NN)no1
inactive: dose: 50.0 mg/kg/injection, schedule: Q01DX009 (ip), vehicle: saline 99 % of control | dose: 100.0 mg/kg/injection, schedule: Q01DX009 (ip), vehicle: saline 100 % of control

NN1C(=O)c2ccc3c4c(ccc(c24)C1=O)CC3
inactive: dose: 50.0 mg/kg/injection, schedule: Q01DX009 (ip), vehicle: suspension in saline 91 % of control | dose: 100.0 mg/kg/injection, schedule: Q01DX009 (ip), vehicle: suspension in saline 102 % of control | dose: 200.0 mg/kg/injection, schedule: Q01DX009 (ip), vehicle: suspension in saline 88 % of control | dose: 400.0 mg/kg/injection, schedule: Q01DX009 (ip), vehicle: suspension in saline 99 % of control

CC(=O)C(=O)c1ccc(O)c(C)c1O
inactive: [2] 107 % of control | [3] 104 % of control | [4] 105 % of control

NC(=Nc1ccc(Cl)cc1)N/N=C/c1ccc2c(c1)Cc1ccccc1-2
inactive: [10] 106 % of control | [11] 106 % of control | [1] 107 % of control

O=S(=O)(O)c1ccc(-c2nnc(-c3ccccn3)nc2-c2ccc(S(=O)(=O)O)o2)o1
inactive: [12] 102 % of control | [13] 97 % of control | [14] 102 % of control

CCC1OCN2CCCCC12 (stereo not drawn)
inactive: [5] 100 % of control and 105 % of control | [6] 107 % of control and 108 % of control | [7] 105 % of control and 107 % of control and 108 % of control | dose: 100.0 mg/kg/injection, schedule: Q01DX005 (ip), vehicle: saline 108 % of control and 110 % of control

O=C1CCC2CCc3ccccc3N12 (stereo not drawn)
inactive: dose: 100.0 mg/kg/injection, schedule: Q04DX002 (ip), vehicle: other 102 % of control | dose: 200.0 mg/kg/injection, schedule: Q04DX002 (ip), vehicle: other 96 % of control | dose: 400.0 mg/kg/injection, schedule: Q04DX002 (ip), vehicle: other 103 % of control

CN(c1ccccc1)C1CS(=O)(=O)OC2=C1CCCC2 (stereo not drawn)
inactive: [2] 98 % of control | [3] 102 % of control | [4] 104 % of control

COc1ccc(-c2cc(=O)cc(C(N)=O)o2)cc1
inactive: dose: 60.0 mg/kg/injection, schedule: Q01DX005 (ip), vehicle: saline with Tween-80 101 % of control | dose: 120.0 mg/kg/injection, schedule: Q01DX005 (ip), vehicle: saline with Tween-80 97 % of control | dose: 240.0 mg/kg/injection, schedule: Q01DX005 (ip), vehicle: saline with Tween-80 96 % of control

c1ccc2cc(N=NNc3ccc4ccccc4c3)ccc2c1
inactive: [2] 122 % of control | dose: 50.0 mg/kg/injection, schedule: Q04DX003 (ip), vehicle: saline with Tween-80 90 % of control | [3] 95 % of control | [8] 100 % of control | [9] 109 % of control

O=c1[nH]c(=S)[nH]cc1Oc1ccc(I)cc1
inactive: dose: 12.5 mg/kg/injection, schedule: Q01DX009 (ip), vehicle: Klucel (hydroxypropylcellulose) (HPC) 106 % of control | dose: 25.0 mg/kg/injection, schedule: Q01DX009 (ip), vehicle: Klucel (hydroxypropylcellulose) (HPC) 107 % of control | dose: 50.0 mg/kg/injection, schedule: Q01DX009 (ip), vehicle: Klucel (hydroxypropylcellulose) (HPC) 104 % of control
